Data from patent US20160235752A1, “COMPOSITIONS, METHODS OF USE, AND METHODS OF TREATMENT” (THE UNIVERSITY OF NEW ORLEANS, priority 2013, published 2016).
Converted amounts (≈) assume the structure as drawn.

How the values were obtained:
[1] = tested on: Candida albicans (ATCC no. 10231); assay: MIC determination by broth microdilution (NCCLS), visual scoring; format: cell-based; details: for MIC80: Candida albicans, ATCC10231, read-out: MIC80 C. albicans
Summary of the method: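 NCCLS broth microdilution in RPMI 1640 with 10 mM HEPES, final compound 0.5–128 μg/mL, DMSO ≤1%. Inoculum from 0.5 McFarland stock diluted 1:50; incubated 35 °C for 48–72 h. MIC scored visually as lowest concentration giving ~80% growth reduction versus drug-free wells.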

[2] = tested on: Candida glabrata (ATCC no. 48435); assay: as above; format: cell-based; details: for MIC80: Nakaseomyces glabratus, ATCC48435, read-out: MIC80 C. glabrata
[3] = tested on: Vero cells (African green monkey kidney cells-ATCC no. CRL-1651); assay: In vitro mammalian cell toxicity (Promega CellTiter 96, MTT); format: cell-based; details: cells from the kidney origin; 24 hours; concentration not given
Description: Finally, in vitro mammalian cell toxicity studies were done using both mammalian kidney cells and human liver cells (Vero (kidney) cells-ATCC no. CRL-1651 and Hep G2 (liver) ATCC no. HB-8065) on all derivatives that had antifungal activity of less than 8 μg/mL. Cytotoxicity studies were performed in accordance with Promega CellTiter 96 Non-RadioactivCell Proliferation Assay (cat # G4000). The data is presented as the percent cells that remain viable, compared to the negative control, which was set to 100%. BA22, BA23 and BA73 had minimal toxicity in the kidney cells, with over 80% cells viable even at a concentration 10 times higher than the MIC (Table 7).
Cytotoxicity was determined using non-cancerous Vero cells (African green monkey kidney cells-ATCC no. CRL-1651) and Hep G2 (liver) (ATCC no. HB-8065) cells in accordance with Promega CellTiter 96 Non-RadioactivCell Proliferation Assay (cat # G4000). Cells were grown for 24 h at 37° C. and 5% CO2 in a 96-well culture plate. All compounds with MIC≦8 μg/ml were further screened in the MTT assays using both cell types. Compounds that fit these criteria were diluted in media to the testing dilution amounts: the MIC concentration (shown in respective tables; 5×MIC; 10×MIC and 100×MIC. The media used to grow cells was DMEM containing 10% FBS and 2%. Cells were incubated in the presence of the compounds for 24 hours at 37° C. and 5% CO2. Tetrazolium dye solution was added to each well and allowed to incubate for 1-4 h. Stabilization/Stop solution was added and allowed to sit at room temperature for 1 h. Formazan product was scored spectrophotometrically with an automatic plate reader set at 570 nm. 0.1% saponin was used as a positive control. 1% DMSO controls were also used since the compounds were reconstituted in DMSO.

[4] = tested on: C. albicans strain SC5314; assay: Testing for respiratory deficiencies: growth in YPD, YPG, YPE; format: cell-based, Candida albicans
Description: (§1) FIGS. 2A and 2B illustrates BA22 activity is enhanced when Candida growth depends upon non-fermentable carbon sources. C. albicans strain SC5314 (FIG. 2A) or C. glabrata strain CS117.93 (FIG. 2B) were grown in medium with 2% glucose (YPD), 3% glycerol (YPG) or 3% ethanol (YPE) at pH 6.5, in dose response experiments with BA22. After 24 hours incubation at 30° C., growth was measured by OD600nm. Growth at each concentration of BA22 is shown as % growth relative to the minus drug (DMSO) control. Data shown is representative of two repeat experiments.
(§2) Considering the significant growth inhibition and lack of overall lack of cytotoxicity of many of the phenylhydrazones, we further explored potential mechanisms of action using the compound BA22 as a representative drug. We initially observed that in the presence of BA22, C. albicans formed small colonies similar to respiration deficient ‘petite’ mutants previously described for Saccharomyces. […] We therefore determined if BA22 affected the ability of C. albicans or C. glabrata to use glycerol or ethanol as carbon sources. […]
(§3) Respiratory deficiencies were examined using YPD (2% glucose), YPE (3% ethanol), or YPG (3% glycerol)^31. […] After 24 and 48 hours incubation at 30° C., growth was quantified by measuring OD600nm using a BioTek plate reader. Growth at each BA concentration was then expressed as % growth vs. the DMSO control of the same medium.

[5] = tested on: C. glabrata strain CS117.93; assay: as above; format: cell-based, Candida glabrata
Description: as §1, §2, §3

[6] = tested on: C. albicans; assay: Colony formation on agar plates enriched with BA22; format: cell-based, Candida albicans; details: agar plates enriched with a range of BA22 concentrations; data not shown
From the text: Considering the significant growth inhibition and lack of overall lack of cytotoxicity of many of the phenylhydrazones, we further explored potential mechanisms of action using the compound BA22 as a representative drug. We initially observed that in the presence of BA22, C. albicans formed small colonies similar to respiration deficient ‘petite’ mutants previously described for Saccharomyces. […] This phenotype somewhat resembles that of respiration deficient ‘petite’ mutants, which are unable to utilize non-fermentable carbon sources such as glycerol and ethanol^30. We therefore determined if BA22 affected the ability of C. albicans or C. glabrata to use glycerol or ethanol as carbon sources. The concentrations of BA22 required to inhibit the growth of either fungi were much lower when glycerol or ethanol is provided as a carbon source versus glucose (FIG. 2). […] Growth inhibition occurred at higher BA22 concentrations in glucose medium, possibly indicating an additional secondary mechanism.

[7] = tested on: Candida albicans (ATCC no. 10231) and Candida glabrata (ATCC no 48435); assay: Antifungal activity, text statements that do not say which fungus; format: cell-based
Description: The antifungal activity of the 2,4,6-pyrimidinetrione analogs shown in Schemes 2-6 were evaluated in vitro using Candida albicans (ATCC no. 10231) and Candida glabrata (ATCC no 48435). All assays were done in accordance with NCCLS reference documents^29. The results of these screenings are summarized in Tables 1-9 as the minimal inhibitory concentrations that inhibited more than 80% fungal growth as compared to the positive controls in 1% DMSO and RPMI media. All MIC screens were done using a visual scoring method as opposed to spectroscopic methods of analysis, due to the physical properties of many of the compounds altering their absorbance spectra relative to the positive, negative and drug controls.
None of the compounds tested over the course of these studies were soluble in water and DMSO was used to dilute each compound tested. Master stock concentrations of all tested compounds were prepared to ensure that the maximum final concentration of DMSO was 1% or less. Subsequent 2-fold serial dilutions were made using sterile water to a final concentration of 1280-5.00 μg/ml. A final 10-fold dilution of each drug was made by aliquotting 0.1 mL of each drug dilution into 0.9 mL of fungal suspension in RPMI 1640 media with 10 mM HEPES buffer added (see methodology below), giving final concentrations tested in the range of 128-0.5 μg/ml.
Antifungal susceptibility studies and minimal inhibitory concentrations (MIC) values for Candida albicans (ATCC no. 10231) and Candida glabrata (ATCC no. 48435) were determined by the broth microdilution technique in accordance with NCCLS reference documents. Microdilution panels ranged from 0.5 to 128 μg/mL. All organisms were subcultured on Sabouraud agar and passaged to ensure purity and viability. The initiating inocula were prepared by picking 5-7 isolated colonies ˜1 mm in diameter from freshly prepared YM agar plates. […] Growth was scored visually. […]

[8] = YPG 3% glycerol or YPE 3% ethanol versus YPD 2% glucose, pH 6.5, 30° C., OD600nm
[9] = Table 7, Phenylhydrazones of 5-Acylpyrimidinetriones

C/C(=N\Nc1ccc([N+](=O)[O-])cc1)C1C(=O)NC(=O)NC1=O [BA25, 5-{(1E)-1-[2-(4-Nitrophenyl)hydrazinylidene]ethyl}pyrimidine-2,4,6-trione]
MIC80 [1]: 2 µg/mL (≈ 6.55 µM)
MIC80 [2]: 2 µg/mL (≈ 6.55 µM)
reduction in cell viability [3]: ~35%

CN1C(=O)C(C=Nc2ccccc2O)C(=O)N(C)C1=O [BA94]
inhibitory activity of Candida albicans ([1]; Schiff base derivatives, Table 5): showed inhibitory activity
MIC80 C. albicans ([1]; Table 5, values marked *: compound displayed MIC with <50% inhibition): 8* μg/mL
MIC80 C. glabrata ([2]; Table 5, Schiff Bases of 5-acylpyrimidinetriones): — (none of the 5-acyl-2,4,6-pyrimidinetriones, 5-alkylated pyrimidinetriones or the 5,5-dialkylated pyrimidinetriones showed antifungal activity through 125 μg/mL)
reduction in cell viability [3]: ~35%

C/C(=N\Nc1ccccc1)C1C(=O)N(C)C(=O)N(C)C1=O [BA78, 1,3-dimethyl-5-[(1E)-1-(2-phenylhydrazinylidene)ethyl]pyrimidine-2,4,6-trione]
MIC80 [1]: 2 µg/mL (≈ 6.94 µM)
MIC80 [2]: 2 µg/mL (≈ 6.94 µM)
reduction in cell viability [3]: ~35%

O=C1NC(=O)C(/C=N/Nc2ccc([N+](=O)[O-])cc2)C(=O)N1 [BA22, 5-{(E)-[2-(4-nitrophenyl)hydrazinylidene]methyl}pyrimidine-2,4,6-trione]
MIC80 [1]: 2 µg/mL (≈ 6.87 µM)
MIC80 [2]: 1 µg/mL (≈ 3.43 µM)
activity when Candida growth depends upon non-fermentable carbon sources ([4]; FIG. 2A, 24 hours, 30° C., % growth relative to DMSO control): enhanced
concentrations of BA22 required to inhibit the growth, glycerol or ethanol versus glucose [4, 8]: much lower
activity when Candida growth depends upon non-fermentable carbon sources ([5]; FIG. 2B, 24 hours, 30° C., % growth relative to DMSO control): enhanced
concentrations of BA22 required to inhibit the growth, glycerol or ethanol versus glucose [5, 8]: much lower
C. albicans colony formation [6]: significantly delayed in a dose dependent manner, eventually forming small colonies

CC(=NNc1ccc([N+](=O)[O-])cc1)C1C(=O)NC(=O)N(c2ccccc2)C1=O (centres unmarked) [BA28]
MIC80 C. albicans [1, 9]: 31.5 µg/mL (≈ 82.6 µM)
MIC80 C. glabrata [2, 9]: 16 µg/mL (≈ 42 µM)
inhibition of fungal growth (in words) [7]: greatly reduced inhibition
